From patent publication US10034883B2, “Mesoporous dosage forms for poorly soluble drugs” (SIEGFRIED AG, priority 2013, dated 2018)

Test: First trials dissolving rivaroxaban into Soluplus polymer
Format: physicochemical
Details: total API/Polymer ratio=0.1

Structure (SMILES): O=C(NC[C@H]1CN(c2ccc(N3CCOCC3=O)cc2)C(=O)O1)c1ccc(Cl)s1 [rivaroxaban]
- maximum amount of rivaroxaban dissolvable into Soluplus: ≤ 10%
